Results as given in PMC9476183 (ACS Omega, 2022).
Several values for one entry are separate records, joined by “and”; a condition that tells them apart may be missing. Equal values may be shown once.

What was measured:
[1] = molecular target: T1, recombinant human CYP1A1 (Homo sapiens, UniProt P04798); test: EROD assay, CYP1A1 inhibition; type: biochemical
T1 sequence (P04798 1-512): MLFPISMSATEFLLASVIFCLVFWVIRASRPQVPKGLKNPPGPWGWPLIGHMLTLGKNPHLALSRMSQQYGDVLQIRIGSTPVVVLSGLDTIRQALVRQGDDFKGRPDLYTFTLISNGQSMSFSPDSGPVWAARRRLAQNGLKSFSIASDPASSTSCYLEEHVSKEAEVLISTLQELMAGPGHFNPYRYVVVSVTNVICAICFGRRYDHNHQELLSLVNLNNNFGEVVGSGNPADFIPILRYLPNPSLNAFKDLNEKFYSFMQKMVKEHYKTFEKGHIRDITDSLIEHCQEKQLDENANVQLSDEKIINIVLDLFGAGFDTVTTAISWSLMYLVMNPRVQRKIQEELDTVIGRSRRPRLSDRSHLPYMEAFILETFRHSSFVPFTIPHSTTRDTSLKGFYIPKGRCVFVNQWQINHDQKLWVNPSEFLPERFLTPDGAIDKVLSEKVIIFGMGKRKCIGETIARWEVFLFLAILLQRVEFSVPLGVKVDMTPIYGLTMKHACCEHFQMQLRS

[2] = test system: myeloid leukemia cell lines; details: ref [64],[65]; cited from earlier work
[3] = molecular target: T2, CYP1B1 over CYP1A1 (Homo sapiens, UniProt Q16678); test: EROD assay, CYP1B1 inhibition; details: human
T2 sequence (Q16678 1-543): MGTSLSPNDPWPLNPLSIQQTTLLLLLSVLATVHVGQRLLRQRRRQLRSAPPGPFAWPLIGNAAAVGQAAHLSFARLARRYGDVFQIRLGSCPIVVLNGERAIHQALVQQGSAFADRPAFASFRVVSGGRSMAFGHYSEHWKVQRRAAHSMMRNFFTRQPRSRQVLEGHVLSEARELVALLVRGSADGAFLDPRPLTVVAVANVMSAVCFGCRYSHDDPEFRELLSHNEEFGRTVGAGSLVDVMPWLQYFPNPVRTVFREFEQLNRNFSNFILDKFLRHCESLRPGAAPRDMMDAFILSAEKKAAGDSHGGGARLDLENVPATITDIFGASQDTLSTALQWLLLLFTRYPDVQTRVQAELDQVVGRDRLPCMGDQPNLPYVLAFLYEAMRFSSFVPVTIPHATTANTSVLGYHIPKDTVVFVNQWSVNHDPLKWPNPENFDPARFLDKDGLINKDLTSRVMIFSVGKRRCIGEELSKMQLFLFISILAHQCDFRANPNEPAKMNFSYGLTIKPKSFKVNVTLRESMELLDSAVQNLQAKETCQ

[4] = molecular target: T3, recombinant human CYP1B1 (Homo sapiens, UniProt Q16678); test: EROD assay, CYP1B1 inhibition; details: IC50 CYP1B1 ± SD, recombinant human enzyme, EROD assay, triplicate
T3 sequence (Q16678 1-543): T2 sequence (Q16678 1-543)

[5] = test system: MDA-MB-231; details: MDA-MB-231, apoptosis mechanism; ref [66]; cited from earlier work
[6] = test system: orthotopic 4T1 breast cancer models; details: by inhibiting tumor-cell platelet aggregation, ref [63]; cited from earlier work
[7] = pH 7.4, selectivity CYP1A1/CYP1B1, ratio of IC50 values

SMILES	IC50 [1] [nM]	cell death [2]	selectivity ratio [3, 7]	selectivity ratio ([3]; pH 7.4, selectivity toward CYP1B1 over CYP1A1, text)	IC50 [4]	anticancer activity [5]	breast cancer prevention [6]
O=c1cc(-c2ccccc2)oc2c1ccc1ccccc12 [ANF, α-naphthoflavone]	20 ± 4	–	–	–	–	–	–
CN(C)CC/C=C1/c2ccccc2Sc2ccc(Cl)cc21 [chlorprothixene]	490 ± 40	induce cell death by apoptosis	6.8	7	72 nM and 70 nM	–	–
COc1ccc(Cl)cc1C(=O)NCCc1ccc(S(=O)(=O)NC(=O)NC2CCCCC2)cc1 [glibenclamide]	> 10000	–	–	–	> 10000 nM	–	–
CC1CCc2c(N3CCC(O)CC3)c(F)cc3c(=O)c(C(=O)O)cn1c23 (stereo not shown) [nadifloxacin]	2360 ± 200	–	1.61	–	1460 nM	promising anticancer activity	–
CCCSc1nc(N[C@@H]2C[C@H]2c2ccc(F)c(F)c2)c2nnn([C@@H]3C[C@H](OCCO)[C@@H](O)[C@H]3O)c2n1 [ticagrelor]	3450 ± 390	–	1.22	–	2810 ± 900 nM	–	breast cancer prevention activity
